Data as given in patent US20200016122A1, “METHOD FOR REDUCING ITCHING IN ATOPIC DERMATITIS” (priority 2018, published 2020).

Tests used:
Kwl:ICR mice = details: mouse, in vivo, 14 days
Protocol: (§1) The present inventors performed single oral dose toxicity tests (2,000 mg/kg) for N-nonanoyltryptamine over 14 days using Kwl:ICR mice. […] Patch tests were performed on human skin, the skin irritation index was 0.0, and the safety was confirmed (LIFE SCIENCE LABORATORIES, LTD., June 2011).

human skin = test: patch test on human skin; assay type: in vivo; details: patch tests on human skin
Protocol: as §1

goats = assay type: in vivo; details: 1.0 mg/50 kg/day over 4 years

In the case of `CCCCCCCCC(=O)NCCc1c[nH]c2ccccc12` [N-nonanoyltryptamine], the lethal dose (Kwl:ICR mice) is reported as ≥ 2,000 mg/kg, the skin irritation index (human skin) is reported as 0.0 and the breeding effect (goats) is reported as “strong breeding effect”.
